# Laboratory results: ChEMBL document CHEMBL2177007, “Indole-derived psammaplin A analogues as epigenetic modulators with multiple inhibitory activities” (J Med Chem, 2012)
# The source made the active and inactive calls. The calls are words filed in the database; no cut-off is given here.
# Assays:
# [1] = Cell cycle arrest in apoptosis in AML patient blasts at 5 uM after 26 hrs; format: functional; settings: Homo sapiens
# [2] = molecular target: Histone deacetylase (Homo sapiens) (UniProt Q13547+O15379+Q9UBN7+Q92769+Q9UQL6+Q8WUI4+Q9BY41+Q96DB2+P56524+Q9UKV0+Q969S8); experiment: Inhibition of HDAC in human U937 cells assessed as induction of histone H3 acetylation at 5 uM after 30 hrs by cytofluorimetric analysis; format: cell-based; settings: U-937
# U-937 [3] = experiment: Cell cycle arrest in human U937 cells at 5 uM after 24 hrs by cytofluorimetric analysis; format: functional, cell-based
# AML = experiment: Induction of apoptosis in AML patient blasts at 5 uM after 26 hrs; format: functional; settings: Homo sapiens
# [4] = molecular target: Protein kinase C alpha type (Homo sapiens) (UniProt P17252); experiment: Inhibition of PKCalpha in human U937 cells assessed as p21WAF1/CIP1 expression at 5 uM after 30 hrs by cytofluorimetric analysis; format: cell-based; settings: U-937
# [5] = molecular target: T1, Protein deacetylase HDAC6 (Homo sapiens) (UniProt Q9UBN7); experiment: Inhibition of HDAC6 in human U937 cells assessed as induction of alpha-tubulin acetylation at 5 uM after 30 hrs by cytofluorimetric analysis; format: cell-based; settings: U-937
# T1 sequence (whole entry): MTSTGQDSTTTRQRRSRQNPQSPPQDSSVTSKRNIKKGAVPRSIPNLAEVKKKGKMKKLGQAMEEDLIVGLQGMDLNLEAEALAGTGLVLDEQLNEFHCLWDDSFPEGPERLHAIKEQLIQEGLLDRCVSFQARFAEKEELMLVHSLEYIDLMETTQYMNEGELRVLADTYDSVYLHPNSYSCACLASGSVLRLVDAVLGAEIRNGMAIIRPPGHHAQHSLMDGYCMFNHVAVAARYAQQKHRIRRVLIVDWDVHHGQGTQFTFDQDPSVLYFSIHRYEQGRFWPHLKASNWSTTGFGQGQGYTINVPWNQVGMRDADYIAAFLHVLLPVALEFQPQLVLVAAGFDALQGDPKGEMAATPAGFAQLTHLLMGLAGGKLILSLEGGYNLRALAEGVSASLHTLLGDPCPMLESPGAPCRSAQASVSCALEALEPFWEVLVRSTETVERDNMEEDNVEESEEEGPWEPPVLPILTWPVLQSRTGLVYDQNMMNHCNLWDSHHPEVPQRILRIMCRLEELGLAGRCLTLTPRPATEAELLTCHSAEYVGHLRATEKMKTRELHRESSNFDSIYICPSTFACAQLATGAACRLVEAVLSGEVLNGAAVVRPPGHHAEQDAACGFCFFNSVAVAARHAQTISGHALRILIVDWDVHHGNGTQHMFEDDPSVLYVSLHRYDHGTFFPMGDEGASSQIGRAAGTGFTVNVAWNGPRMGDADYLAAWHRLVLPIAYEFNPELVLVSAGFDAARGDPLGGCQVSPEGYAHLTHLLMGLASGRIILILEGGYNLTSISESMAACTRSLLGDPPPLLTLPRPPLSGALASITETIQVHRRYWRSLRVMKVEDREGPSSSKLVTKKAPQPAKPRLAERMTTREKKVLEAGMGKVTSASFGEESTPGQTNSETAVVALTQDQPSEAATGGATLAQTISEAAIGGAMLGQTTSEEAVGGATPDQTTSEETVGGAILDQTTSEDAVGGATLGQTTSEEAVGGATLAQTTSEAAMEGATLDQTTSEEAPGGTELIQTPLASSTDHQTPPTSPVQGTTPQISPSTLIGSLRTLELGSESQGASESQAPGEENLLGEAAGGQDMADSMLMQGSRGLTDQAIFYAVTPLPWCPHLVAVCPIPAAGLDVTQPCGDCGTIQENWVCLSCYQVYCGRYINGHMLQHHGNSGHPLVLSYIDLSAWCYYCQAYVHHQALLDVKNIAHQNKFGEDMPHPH
# U-937 [6] = experiment: Induction of apoptosis in human U937 cells at 5 uM after 30 hrs; format: functional, cell-based
# [7] = molecular target: Histone deacetylase 1 (Homo sapiens) (UniProt Q13547); experiment: Inhibition of HDAC1 in human U937 cells at 5 uM […]; format: cell-based; settings: U-937
# Sequence of Histone deacetylase 1 (Homo sapiens) (Q13547 whole entry): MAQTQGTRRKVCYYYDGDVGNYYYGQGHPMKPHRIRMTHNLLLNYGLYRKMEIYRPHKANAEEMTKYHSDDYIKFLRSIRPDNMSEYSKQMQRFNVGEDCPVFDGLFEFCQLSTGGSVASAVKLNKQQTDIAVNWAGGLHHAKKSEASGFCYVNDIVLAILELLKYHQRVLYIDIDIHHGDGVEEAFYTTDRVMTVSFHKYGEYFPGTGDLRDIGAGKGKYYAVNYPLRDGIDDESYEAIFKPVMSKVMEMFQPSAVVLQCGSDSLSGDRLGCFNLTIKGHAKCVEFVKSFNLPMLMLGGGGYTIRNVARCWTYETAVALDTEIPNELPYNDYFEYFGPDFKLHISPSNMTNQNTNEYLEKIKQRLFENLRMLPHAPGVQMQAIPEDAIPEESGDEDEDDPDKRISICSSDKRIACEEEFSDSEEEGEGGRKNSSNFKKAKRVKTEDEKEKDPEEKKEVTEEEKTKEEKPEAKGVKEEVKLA
# U-937 [8] = experiment: Induction of cell differentiation in human U937 cells assessed as CD11c expression at 5 uM after 30 hrs by cytofluorimetric analysis; format: functional, cell-based
# [9] = molecular target: Histone deacetylase 4 (Homo sapiens) (UniProt P56524); experiment: Inhibition of HDAC4 in human U937 cells at 5 uM […]; format: cell-based; settings: U-937
# Sequence of Histone deacetylase 4 (Homo sapiens) (P56524 whole entry): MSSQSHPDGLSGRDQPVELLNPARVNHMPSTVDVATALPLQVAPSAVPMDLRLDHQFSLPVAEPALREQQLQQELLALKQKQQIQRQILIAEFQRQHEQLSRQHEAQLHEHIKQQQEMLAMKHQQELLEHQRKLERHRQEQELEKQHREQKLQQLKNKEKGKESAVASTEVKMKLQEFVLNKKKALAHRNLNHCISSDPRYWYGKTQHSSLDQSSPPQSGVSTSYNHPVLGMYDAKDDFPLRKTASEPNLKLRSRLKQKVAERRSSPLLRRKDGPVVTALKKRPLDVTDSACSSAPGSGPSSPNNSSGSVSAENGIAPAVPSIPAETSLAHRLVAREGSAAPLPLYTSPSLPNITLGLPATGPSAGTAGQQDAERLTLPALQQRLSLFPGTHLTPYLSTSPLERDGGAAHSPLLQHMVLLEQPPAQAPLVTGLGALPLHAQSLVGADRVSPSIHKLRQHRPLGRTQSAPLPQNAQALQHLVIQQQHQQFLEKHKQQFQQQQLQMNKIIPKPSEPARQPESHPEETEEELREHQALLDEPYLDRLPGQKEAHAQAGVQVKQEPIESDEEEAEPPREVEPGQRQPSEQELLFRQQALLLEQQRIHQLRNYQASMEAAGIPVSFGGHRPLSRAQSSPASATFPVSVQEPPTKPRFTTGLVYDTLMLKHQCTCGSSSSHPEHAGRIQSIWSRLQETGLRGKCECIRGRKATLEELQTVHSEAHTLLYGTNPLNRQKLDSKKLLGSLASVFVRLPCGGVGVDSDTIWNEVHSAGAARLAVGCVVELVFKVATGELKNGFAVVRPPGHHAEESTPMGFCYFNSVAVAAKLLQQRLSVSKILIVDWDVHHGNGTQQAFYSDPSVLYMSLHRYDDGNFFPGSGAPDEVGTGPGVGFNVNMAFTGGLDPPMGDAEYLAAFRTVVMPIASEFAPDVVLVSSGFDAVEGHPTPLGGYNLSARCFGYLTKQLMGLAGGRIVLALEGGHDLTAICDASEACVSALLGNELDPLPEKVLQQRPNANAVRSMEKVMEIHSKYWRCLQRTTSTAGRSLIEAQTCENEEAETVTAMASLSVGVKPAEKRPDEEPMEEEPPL
# [10] = molecular target: DNA (cytosine-5)-methyltransferase 1 (Homo sapiens) (UniProt P26358); experiment: Inhibition of DNMT1 human u937 cells assessed as reactivation of p16 expression at 0.5 to 5 uM after 24 hrs by Western blot analysis
# Sequence of DNA (cytosine-5)-methyltransferase 1 (Homo sapiens) (P26358 whole entry): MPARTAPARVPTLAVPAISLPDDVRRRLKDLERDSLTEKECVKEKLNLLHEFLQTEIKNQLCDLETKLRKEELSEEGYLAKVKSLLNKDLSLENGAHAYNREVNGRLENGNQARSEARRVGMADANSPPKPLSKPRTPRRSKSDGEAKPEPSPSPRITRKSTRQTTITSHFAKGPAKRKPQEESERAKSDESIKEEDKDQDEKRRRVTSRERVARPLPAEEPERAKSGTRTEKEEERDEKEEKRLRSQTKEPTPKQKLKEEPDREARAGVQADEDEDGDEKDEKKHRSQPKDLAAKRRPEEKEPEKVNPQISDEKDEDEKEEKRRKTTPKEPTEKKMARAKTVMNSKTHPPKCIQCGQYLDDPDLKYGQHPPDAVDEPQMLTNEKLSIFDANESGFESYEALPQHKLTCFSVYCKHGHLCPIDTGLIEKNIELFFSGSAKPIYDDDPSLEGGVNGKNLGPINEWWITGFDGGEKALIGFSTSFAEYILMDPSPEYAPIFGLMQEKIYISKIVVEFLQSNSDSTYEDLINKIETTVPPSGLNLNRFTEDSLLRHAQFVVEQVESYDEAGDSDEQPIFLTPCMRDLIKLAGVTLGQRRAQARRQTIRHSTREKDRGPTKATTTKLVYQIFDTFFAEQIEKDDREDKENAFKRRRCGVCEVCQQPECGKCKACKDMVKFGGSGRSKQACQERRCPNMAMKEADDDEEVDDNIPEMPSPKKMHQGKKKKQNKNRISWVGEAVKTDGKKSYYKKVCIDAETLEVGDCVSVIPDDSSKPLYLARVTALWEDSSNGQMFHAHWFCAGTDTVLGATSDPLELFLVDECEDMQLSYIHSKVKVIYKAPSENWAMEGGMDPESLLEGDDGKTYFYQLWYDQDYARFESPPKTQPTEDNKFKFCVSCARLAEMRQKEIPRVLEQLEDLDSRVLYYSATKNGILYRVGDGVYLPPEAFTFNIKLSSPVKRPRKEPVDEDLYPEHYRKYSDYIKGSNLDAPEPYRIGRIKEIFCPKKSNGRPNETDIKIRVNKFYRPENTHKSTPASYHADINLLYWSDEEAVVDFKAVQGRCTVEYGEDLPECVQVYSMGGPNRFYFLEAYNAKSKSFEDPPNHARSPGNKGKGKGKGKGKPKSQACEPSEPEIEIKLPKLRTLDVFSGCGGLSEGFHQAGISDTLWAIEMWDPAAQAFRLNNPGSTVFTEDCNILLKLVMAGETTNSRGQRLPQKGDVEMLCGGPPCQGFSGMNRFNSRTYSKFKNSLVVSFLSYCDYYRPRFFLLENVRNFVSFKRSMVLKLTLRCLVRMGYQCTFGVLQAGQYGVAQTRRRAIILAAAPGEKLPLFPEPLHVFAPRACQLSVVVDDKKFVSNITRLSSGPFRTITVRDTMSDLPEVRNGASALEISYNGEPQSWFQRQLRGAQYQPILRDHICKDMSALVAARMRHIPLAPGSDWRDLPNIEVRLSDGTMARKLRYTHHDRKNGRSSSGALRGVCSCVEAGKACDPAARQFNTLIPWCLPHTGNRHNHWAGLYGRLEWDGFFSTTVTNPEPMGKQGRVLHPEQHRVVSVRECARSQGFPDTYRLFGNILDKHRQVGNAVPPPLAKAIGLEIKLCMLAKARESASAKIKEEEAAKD
# U-937 [11] = experiment: Effect on DNMT1 level in human U937 cells at 0.5 to 5 uM after 24 hrs by Western blot analysis; format: functional, cell-based
# [12] = molecular target: DNA (cytosine-5)-methyltransferase 1 (Homo sapiens) (UniProt P26358); experiment: Inhibition of recombinant DNMT1 using S-adenosyl-L-[methyl-3H]methionine as substrate at 5 uM after 2 hrs by radioactive assay
# [13] = molecular target: T2, NAD-dependent protein deacetylase sirtuin-1 (Homo sapiens) (UniProt Q96EB6); experiment: Inhibition of human recombinant SIRT1 using KI-177 as substrate at 5 uM after 30 mins by fluorescence assay
# T2 sequence (whole entry): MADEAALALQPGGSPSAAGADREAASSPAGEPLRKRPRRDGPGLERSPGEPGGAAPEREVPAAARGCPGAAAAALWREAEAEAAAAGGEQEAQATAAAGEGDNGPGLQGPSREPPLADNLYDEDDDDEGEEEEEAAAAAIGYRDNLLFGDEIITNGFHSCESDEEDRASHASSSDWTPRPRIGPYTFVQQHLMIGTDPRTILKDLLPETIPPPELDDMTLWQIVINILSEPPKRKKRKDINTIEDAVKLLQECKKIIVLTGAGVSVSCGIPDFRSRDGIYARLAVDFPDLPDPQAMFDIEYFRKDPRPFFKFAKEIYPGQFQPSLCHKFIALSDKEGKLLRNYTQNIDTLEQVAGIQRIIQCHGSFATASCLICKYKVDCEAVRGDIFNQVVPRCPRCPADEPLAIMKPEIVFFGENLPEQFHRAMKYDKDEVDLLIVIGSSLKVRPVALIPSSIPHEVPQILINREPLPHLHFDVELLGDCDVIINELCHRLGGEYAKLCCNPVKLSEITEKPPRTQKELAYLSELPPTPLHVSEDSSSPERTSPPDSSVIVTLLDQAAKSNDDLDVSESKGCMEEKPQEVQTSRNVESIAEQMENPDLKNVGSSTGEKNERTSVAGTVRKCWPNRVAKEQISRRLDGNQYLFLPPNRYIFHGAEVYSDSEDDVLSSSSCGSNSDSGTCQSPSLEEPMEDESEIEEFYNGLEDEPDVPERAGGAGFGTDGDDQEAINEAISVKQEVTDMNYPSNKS
# [14] = molecular target: T2, NAD-dependent protein deacetylase sirtuin-1 (Homo sapiens); experiment: Inhibition of SIRT1 in human U937 cells assessed as H3 acetylation on lysine K56 at 5 uM after 24 hrs by Western blot analysis; format: cell-based; settings: U-937
# [15] = molecular target: DNA (cytosine-5)-methyltransferase 1 (Homo sapiens) (UniProt P26358); experiment: Inhibition of DNMT1 human U937 cells assessed as reactivation of p16 expression at 5 uM after 24 hrs by Western blot analysis; format: cell-based; settings: U-937
# [16] = molecular target: T2, NAD-dependent protein deacetylase sirtuin-1 (Homo sapiens); experiment: Inhibition of SIRT1 in human U937 cells assessed as H3 acetylation on lysine K9 at 5 uM after 24 hrs by Western blot analysis; format: cell-based; settings: U-937
# [17] = molecular target: T2, NAD-dependent protein deacetylase sirtuin-1 (Homo sapiens); experiment: Inhibition of SIRT1 in human MCF7 cells assessed as p53 acetylation on lysine 382 after 24 hrs by Western blot analysis; format: cell-based
# [18] = molecular target: T2, NAD-dependent protein deacetylase sirtuin-1 (Homo sapiens); experiment: Inhibition of SIRT1 in human MCF7 cells assessed as p53 acetylation on lysine 382 at 5 uM after 24 hrs by Western blot analysis; format: cell-based
# U-937 [19] = experiment: Cell cycle arrest in human U937 cells assessed as accumulation at G2M phase at 5 uM after 24 hrs by cytofluorimetric analysis; format: functional, cell-based
# U-937 [20] = experiment: Cell cycle arrest in human U937 cells assessed as accumulation at G1 phase at 5 uM after 24 hrs by cytofluorimetric analysis; format: functional, cell-based
SMILES,inhibition [2],inhibition [4],inhibition [5],inhibition [7],inhibition [9],inhibition [10],inhibition [12],inhibition [13],inhibition [14],inhibition [15],inhibition [16],inhibition [17],inhibition [18],Activity [1],Activity (AML),Activity (U-937 [6]),Activity (U-937 [8]),Activity (U-937 [11]),further results
O=C(NCCO)/C(Cc1c[nH]c2ccc(Br)cc12)=N/O,–,–,Active,–,–,–,–,inactive,inactive,Active,inactive,Dose-dependent effect,–,–,–,–,–,inactive,–
O=C(NCCSSCCNC(=O)/C(Cc1c[nH]c2ccc(OCc3ccccc3)cc12)=N/O)/C(Cc1c[nH]c2ccc(OCc3ccccc3)cc12)=N/O,Active,Active,Active,Active,Active,–,Active,–,–,Active,–,Dose-dependent effect,–,–,–,Active,Active,inactive,–
O=C(NCCCCSSCCCCNC(=O)/C(Cc1c[nH]c2ccc(Br)cc12)=N/O)/C(Cc1c[nH]c2ccc(Br)cc12)=N/O,inactive,–,Active,40%,20%,Active,–,inactive,Active,–,Active,–,inactive,–,–,Active,Active,inactive,–
CSCCNC(=O)/C(Cc1c[nH]c2ccc(Br)cc12)=N/O,Active,Active,Active,40%,20%,Active,inactive,inactive,Active,–,Active,–,Active,–,Active,inactive,Active,inactive,Activity (U-937 [19]): inactive; Activity (U-937 [20]): Active
O=C(CCc1c[nH]c2ccc(Br)cc12)NCCSSCCNC(=O)CCc1c[nH]c2ccc(Br)cc12,Active,Active,Active,Active,–,–,inactive,–,–,–,–,Dose-dependent effect,–,–,–,Active,–,inactive,–

# Continued, in another order:
inhibition [2],inhibition [4],inhibition [5],inhibition [7],inhibition [9],inhibition [10],inhibition [12],inhibition [13],inhibition [14],inhibition [15],inhibition [16],inhibition [17],inhibition [18],SMILES,Activity [1],Activity (AML),Activity (U-937 [6]),Activity (U-937 [8]),Activity (U-937 [11]),further results
Active,Active,Active,60%,40%,–,–,–,–,–,–,–,–,O=C(NCCSSCCNC(=O)/C(Cc1c[nH]c2c(Br)cccc12)=N/O)/C(Cc1c[nH]c2c(Br)cccc12)=N/O,Active,Active,Active,Active,–,Activity (U-937 [3]): Active
Active,Active,Active,Active,–,Active,inactive,inactive,Active,Active,Active,Dose-dependent effect,–,Cn1cc(C/C(=N\O)C(=O)NCCSSCCNC(=O)/C(Cc2cn(C)c3ccc(Br)cc23)=N/O)c2cc(Br)ccc21,–,–,Active,Active,inactive,–
Active,Active,Active,60%,40%,Active,Active,Active,–,Active,–,–,Active,O=C(NCCSSCCNC(=O)/C(Cc1c[nH]c2ccc(Br)cc12)=N/O)/C(Cc1c[nH]c2ccc(Br)cc12)=N/O,Active,Active,Active,–,inactive,–
–,–,Active,–,–,–,–,–,–,–,–,–,–,O=C(NCCSSCCNC(=O)/C(Cc1ccc(O)c(Br)c1)=N/O)/C(Cc1ccc(O)c(Br)c1)=N/O,Active,Active,Active,–,–,–
Active,Active,Active,60%,40%,–,–,–,–,–,–,–,–,O=C(NCCSSCCNC(=O)/C(Cc1c[nH]c2cc(Br)ccc12)=N/O)/C(Cc1c[nH]c2cc(Br)ccc12)=N/O,Active,Active,Active,Active,–,Activity (U-937 [3]): Active
